Laboratory results taken from US4559323A, “A41030 Antibiotics” (Eli Lilly and Company, priority 1984, dated 1985).
Where two headings read alike, the source gives them in different places.

Experiments:
[1] = Electrometric titration (pKa); assay type: physicochemical; details: electrometric titration in 66% dimethylformamide in water
Solubility in solvents = assay type: physicochemical; details: solvents as named
Description: The seven antibiotic factors are recovered from the fermentation and are obtained as a mixture, the A41030 complex. It will be recognized that the ratio of the factors in the A41030 complex will vary, depending upon the fermentation conditions used. The individual factors […], and G are separated and isolated as individual compounds, as hereinafter described.

Staphylococcus aureus = assay: Agar-dilution MIC; assay type: cell-based; details: Table 17, 24 hours
Hemophilus influenzae = assay: Agar-dilution MIC; assay type: cell-based; details: Table 17, 24 hours
[2] = tested on: Staphylococcus epidermidis; assay: Agar-dilution MIC; assay type: cell-based; details: Table 17; 24 hours; Staphylococcus epidermidis EPI1
Description: (§1) The agar-dilution procedure described by the International Collaborative study (ICS) group was used to determine the minimum inhibitory concentrations (MIC's).

Streptococcus pneumoniae = assay: Agar-dilution MIC; assay type: cell-based; details: Table 17; 24 hours; Streptococcus pneumoniae Park I
Description: as §1

Streptococcus pyogenes = assay: Agar-dilution MIC; assay type: cell-based; details: Table 17; 24 hours; Streptococcus pyogenes C203
Description: as §1

[3] = tested on: Streptococcus sp. (Group D); assay: Agar-dilution MIC; assay type: cell-based; details: Table 17, 24 hours
Description: as §1

Bacteroides fragilis = assay: Agar-dilution MIC (anaerobes); assay type: cell-based; details: Table 14
Description: as §1

B. thetaiotaomicron = assay type: cell-based; details: Table 14; Bacteroides thetalotaomicron 1438
Description: as §1

Propionibacterium acnes = assay: Agar-dilution MIC (anaerobes); assay type: cell-based; details: Table 14; Propionibacterium acnes 79
Description: Antibiotic A41030 factors A, B and C have also been tested and found to be active against a genus of anaerobic bacteria identified as Propionibacterium acnes.

Clostridium difficile [4] = assay type: cell-based; details: Table 16
Description: The A41030 antibiotic factors A, B, C, D, E, F, and G, are also active against a number of strains of Clostridium difficile, as determined by the agar-dilution method.

Clostridium perfringens = assay type: cell-based; details: Table 14; Clostridium perfringens 81
Clostridium septicum = assay: Agar-dilution MIC (anaerobes); assay type: cell-based; details: Table 14; Clostridium septicum 1128
Eubacterium aerofaciens = assay: Agar-dilution MIC (anaerobes); assay type: cell-based; details: Table 14; Eubacterium aerofaciens 1235
Peptococcus prevoti = assay: Agar-dilution MIC (anaerobes); assay type: cell-based; details: Table 14; Peptococcus prevoti 1281
[5] = tested on: Peptostreptococcus anaerobius; assay: Agar-dilution MIC (anaerobes); assay type: cell-based; details: Table 14; Peptostreptococcus anaerobius 1428
[6] = tested on: Peptostreptococcus intermedius; assay: Agar-dilution MIC (anaerobes); assay type: cell-based; details: Table 14; Peptostreptococcus intermedius 1264
[7] = tested on: Bacteroides melaninogenicus; assay: Agar-dilution MIC (anaerobes); assay type: cell-based; details: Table 14; Bacteroides melaninogenicus 2736
Fusobacterium symbiosum = assay: Agar-dilution MIC (anaerobes); assay type: cell-based; details: Table 14; Fusobacterium symbiosum 1470
[8] = tested on: Fusobacterium necrophorum; assay: Agar-dilution MIC (anaerobes); assay type: cell-based; details: Table 14; Fusobacterium necrophorum 6054A
Salmonella typhi = assay: Agar-dilution MIC; assay type: cell-based; details: Table 17, 24 hours
S. pneumoniae = assay: Experimental bacterial infection in mice, subcutaneous ED50; assay type: in vivo; details: two doses subcutaneously
Procedure: (§2) All of the A41030 factors tested have shown in vivo antimicrobial activity against experimental bacterial infections. When two doses of test compound were administered subcutaneously to mice in illustrative infections, the activity observed is measured as an ED50 value [effective dose in mg./kg. to protect fifty percent of the test animals: See Warren Wick, et al., J. Bacteriol. 81, 233-235 (1961)].

S. pyogenes = assay: as above; assay type: in vivo; details: two doses subcutaneously
Procedure: as §2

Staph. aureus = assay: as above; assay type: in vivo; details: two doses subcutaneously
Procedure: as §2

Bacteroides corrodens = assay: Agar-dilution MIC (anaerobes); assay type: cell-based; details: Table 14; Bacteroides corrodens 1874
Bacteroides vulgatis = assay: Agar-dilution MIC (anaerobes); assay type: cell-based; details: Table 14; Bacteroides vulgatis 1211
Clostridium difficile [9] = assay type: cell-based; details: Table 14; Clostridium difficile 2994
[10] = tested on: Peptococcus asaccharolyticus; assay: Agar-dilution MIC (anaerobes); assay type: cell-based; details: Table 14; Peptococcus asaccharolyticus 1302

What does the source list for A41030 factor E?
pKa, first titratable group [1]: about 5.8; pKa, second titratable group [1]: ~7.7; Solubility (Solubility in solvents): soluble in the same solvents as factor A; MIC (Staphylococcus aureus; Staphylococcus aureus 3055): 0.125 µg/mL; MIC (Staphylococcus aureus; Staphylococcus aureus S13E): 0.25 µg/mL; MIC (Staphylococcus aureus; Staphylococcus aureus V41): 0.25 µg/mL; MIC (Staphylococcus aureus; Staphylococcus aureus X400): 0.25 µg/mL; MIC (Hemophilus influenzae; Haemophilus influenzae 76): 8 µg/mL; MIC (Hemophilus influenzae; Haemophilus influenzae C.L.): 8 µg/mL; MIC [2]: 0.25 µg/mL; MIC (Streptococcus pneumoniae): 0.25 µg/mL; MIC (Streptococcus pyogenes): 0.25 µg/mL; MIC ([3]; Streptococcus sp. Group D 9960): 1 µg/mL; MIC ([3]; Streptococcus sp. Group D X66): 1 µg/mL; MIC (Bacteroides fragilis; Bacteroides fragilis 111): 64 µg/mL; MIC (Bacteroides fragilis; Bacteroides fragilis 1877): 32 µg/mL; MIC (Bacteroides fragilis; Bacteroides fragilis 1936B): 64 µg/mL; MIC (B. thetaiotaomicron): 64 µg/mL; MIC (Propionibacterium acnes): 0.5 µg/mL; MIC (Clostridium difficile [4]; C. difficile 78): 0.5 µg/mL; MIC (Clostridium difficile [4]; C. difficile 107B): 0.5 µg/mL; MIC (Clostridium difficile [4]; C. difficile 111F): 0.5 µg/mL; MIC (Clostridium difficile [4]; C. difficile 1153): 1.0 µg/mL; MIC (Clostridium difficile [4]; C. difficile 2634): 1.0 µg/mL; MIC (Clostridium difficile [4]; C. difficile 3424-5B): 0.5 µg/mL; MIC (Clostridium difficile [4]; C. difficile 3816): 0.5 µg/mL; MIC (Clostridium difficile [4]; C. difficile 3950): 0.5 µg/mL; MIC (Clostridium difficile [4]; C. difficile 6890): 0.5 µg/mL; MIC (Clostridium difficile [4]; C. difficile 8484): 0.5 µg/mL; MIC (Clostridium difficile [4]; C. difficile A-194): 0.5 µg/mL; MIC (Clostridium difficile [4]; C. difficile A-195): 0.5 µg/mL; MIC (Clostridium difficile [4]; C. difficile A-196): 1.0 µg/mL; MIC (Clostridium difficile [4]; C. difficile A-279): 0.5 µg/mL; MIC (Clostridium difficile [4]; C. difficile A-280): 0.5 µg/mL; MIC (Clostridium difficile [4]; C. difficile A-281): 1.0 µg/mL; MIC (Clostridium difficile [4]; C. difficile WAL-2112): 0.5 µg/mL; MIC (Clostridium difficile [4]; C. difficile WAL-3657): 0.5 µg/mL; MIC (Clostridium difficile [4]; C. difficile WAL-4268): 0.5 µg/mL; MIC (Clostridium perfringens): 1.0 µg/mL; MIC (Clostridium septicum): 0.5 µg/mL; MIC (Eubacterium aerofaciens): 0.5 µg/mL; MIC (Peptococcus prevoti): 32 µg/mL; MIC [5]: 32 µg/mL; MIC [6]: 32 µg/mL; MIC [7]: 32 µg/mL; MIC (Fusobacterium symbiosum): 1.0 µg/mL; MIC [8]: 0.5 µg/mL; MIC (Salmonella typhi; Salmonella typhi 1335): > 128 µg/mL; MIC (Salmonella typhi; Salmonella typhi X514): > 128 µg/mL; ED50 (S. pneumoniae): 3.11 mg/kg; ED50 (S. pyogenes): 3.54 mg/kg; ED50 (Staph. aureus): < 0.31 mg/kg; MIC (Bacteroides corrodens): 64 µg/mL; MIC (Bacteroides vulgatis): 32 µg/mL; MIC (Clostridium difficile [9]): 0.5 µg/mL; MIC [10]: ≤ 0.25 µg/mL
